Data: patent US9006284B2, “Combination therapy for treating proliferative diseases” (Bionomics Limited, priority 2009, dated 2015)

How the values were obtained:
[1] = system: tumor endothelial cells (activated) and normal endothelial cells (quiescent); test: Selectivity between activated and quiescent endothelial cells; assay type: cell-based
Protocol: (§1) Proliferation Assay—quiescent endothelium: Human umbilical vein endothelial cells (CC-2519, Clonetics) were plated at 15000 cells/well in EBM2 (CC-3156, Clonetics)+0.5% FBS (CC-4101A, Clonetics)+GA-1000 (CC-4381A, Clonetics) in a 96 well plate in triplicate. Cells were cultured overnight at 37° C. 5% CO2. Medium was subsequently replaced with fresh medium including the compound or negative control. Cells were cultured for a period of 48 hrs. An MTT assay was performed to measure changes in cell numbers. Briefly, 20 μl of MTT reagent was added to cells containing 100 μl of EBM2+0.5% FBS and incubated at 37° C. for 2 hours. Absorbance was measured at 492 nm.
as §1, with “Assay—activated” for “Assay—quiescent”, “2500” for “15000”, “EGM2 (CC-3162,” for “EBM2 (CC-3156, Clonetics)+0.5% FBS (CC-4101A, Clonetics)+GA-1000 (CC-4381A,”, “EGM2” for “EBM2+0.5% FBS”

[2] = system: MDA-MB-231 solid orthotopic tumors; test: Tumor growth inhibition, MDA-MB-231 orthotopic tumors; assay type: in vivo, Balb/c nu/nu mice; conditions: 40 mg/kg i.v., two cycles, up to 72 days; vs vehicle p<0.001 from day 4 to Day 70
From the text: Animals were i.v. dosed with a total of two cycles of Example 2 treatment. Each cycle was dosing on […] followed by a three week no-dosing period. Tumor growth represented as a ratio to initial tumor volume is shown over a total of 72-days.
Tumor growth as well as animal health were monitored for up to 72 days post-day 1 of treatment. […] Significant differences in tumor growth between Example 2 treated (n=64) and vehicle treated (n=20) animals were observed as early as day 4 (p<0.001; unpaired t-test; Prism® analysis) through to Day 70.

Caki-1 xenograft tumors = test: Immunohistochemistry analysis of Caki-1 renal xenografts; assay type: in vivo, BALB/c nu/nu mice; conditions: single i.v. 32 mg/kg
From the text: These effects result in some reduction of tumor growth in animal models. Tumor recovery from the vascular damage caused by VDA action occurs within 48 hrs post-treatment. Furthermore, vascular disruption spares the outer cellular rim of a tumor mass that appears to be supported by normal vessels that surround the tumor capsule and remain unaffected by VDA action. It is reasonable to hypothesise that his viable rim subsequently supports tumor revascularisation and recovery from the action of the VDA agent. We hypothesised that the recovery of the tumors from the effects of the VDA action is driven by molecular pathways that support cancer cell survival and induction of angiogenesis. We undertook a number of histological analyses to assess the damage caused by Example 2 on the integrity of components of the tumor microenvironment and obtain information of upregulation of proteins that are likely to be involved in tumor recovery. Our analyses included evaluation of the expression of VEGF, phosphorylated mTOR, Hypoxia inducible factor-1-alpha (Hif-1α), and Hypoxia inducible factor-2-alpha (Hif-2α), the level of apoptosis, integrity of endothelial cells and the basement membrane protein laminin.
Female BALB/c nu/nu mice at 6 to 8 weeks were injected s.c. with the human cancer cell line Caki-1 representing renal cancer. Cells were resuspended in Dulbecco's PBS (Sigma-Aldrich) and 5×10^6 cells were injected s.c. Tumors were grown to an average size of 700 mm^3 prior to treatment. Example 2 treatment consisted of a single i.v. injection at dose level of 32 mg/kg. Saline treatment was included as a vehicle control. Animals were euthanized and tumors were excised for histologic examination 24 hours post dosing. Cryosections of tumors were prepared and probed with phosphorylated mTOR (ser 2448), Hif-1α, Hif-2α and CD31 specific antibodies. Antibody staining was visualized using 3,3′-Diaminobenzidine (brown staining) and sections were conterstained with Myers hematoxylin.

[3] = system: Human umbilical vein endothelial cells (HUVECs), normal quiescent type endothelial cells; test: Proliferation assay, quiescent endothelium (Norm); assay type: cell-based; conditions: HUVEC, given as ranges
Protocol: as §1

MCF-7 = test: Growth inhibition (SRB or cell counting), MCF-7; assay type: cell-based; conditions: Homo sapiens, MCF7, concentration required to inhibit net cell growth by 50%, read-out: Cancer cell line: IC50
[4] = system: Human umbilical vein endothelial cells (HUVECs), tumour type activated endothelial cells; test: Proliferation assay, activated endothelium (Tum); assay type: cell-based; conditions: HUVEC, given as ranges
Protocol: as §1, with “Assay—activated” for “Assay—quiescent”, “2500” for “15000”, “EGM2 (CC-3162,” for “EBM2 (CC-3156, Clonetics)+0.5% FBS (CC-4101A, Clonetics)+GA-1000 (CC-4381A,”, “EGM2” for “EBM2+0.5% FBS”

MDA-MB-231 = test: Growth inhibition (SRB or cell counting), MDA-MB-231; assay type: cell-based; conditions: Homo sapiens; MDA-MB-231 (footnote b); given as ranges; read-out: Cancer cell line: IC50
[5] = around the viable rim region, 24 hours

For `COc1ccc(/C=C\c2cc(OC)c(OC)c(OC)c2)cc1O` [Combretastatin A4], the “Selectivity activated vs quiescent endothelial cells” value [1] was “equally potent against quiescent and activated endothelial cells”.
With `COc1cc(C(=O)c2c(C)oc3c(OP(=O)([O-])[O-])c(OC)ccc23)cc(OC)c1OC.[Na+].[Na+]` [Example 2, Disodium 6-methoxy-2-methyl-3-(3,4,5-trimethoxybenzoyl)benzofuran-7-yl phosphate] the “Tumor growth (ratio to initial tumor volume)” value [2] was “tumor growth inhibition”, the “Number of apoptotic cells within the tumor” value (Caki-1 xenograft tumors; 24-30 hrs after treatment) was “significant increase in the number of apoptotic cells” and the “Staining of laminin (basement membrane integrity)” value (Caki-1 xenograft tumors; 24-30 hrs after treatment) was “considerable reduction in the staining”. For the same compound, the “Staining with anti-human VEGF antibody” value (Caki-1 xenograft tumors; 24-30 hrs after treatment) was “dramatic increase in staining”, the “Staining with endothelial cell marker CD31” value (Caki-1 xenograft tumors; 24-30 hrs after treatment) was “decrease in staining” and the “Expression of Hif-1α” value (Caki-1 xenograft tumors; [5]) was “Increased expression”. The “Expression of Hif-2α” value (Caki-1 xenograft tumors; [5]) was “Increased expression” and the “Expression of phosphorylated mTOR (ser 2448)” value (Caki-1 xenograft tumors; [5]) was “Increased expression”.
With `COc1ccc(/C=C\c2cc(OC)c(OC)c(OC)c2)cc1OP(=O)(O)O` [Example 4] the IC50 [3] was 1 to 10 nM, the IC50 (MCF-7) was 5 nM and the IC50 [4] was 1 to 10 nM.
`COc1ccc2c(C(=O)c3cc(OC)c(OC)c(OC)c3)coc2c1` [Example 5] showed an IC50 [3] of 10 to 100 nM, an IC50 (MCF-7) of 55 nM and an IC50 [4] of 10 to 100 nM.
`CNc1oc2c(O)c(OC)ccc2c1C(=O)c1cc(OC)c(OC)c(OC)c1` [Example 10] gave an IC50 [3] of 0.1 to 1 nM, an IC50 (MCF-7) of 3.5 nM and an IC50 [4] of 1 to 10 nM.
`C#Cc1oc2c(O)c(OC)ccc2c1C(=O)c1cc(OC)c(OC)c(OC)c1` [Example 12] was tested, and the IC50 [3] was 1 to 10 nM, the IC50 (MCF-7) was 3.3 nM and the IC50 [4] was 1 to 10 nM.
For `COc1cc(C(=O)c2coc3c(N)c(OC)ccc23)cc(OC)c1OC` [Example 19], the IC50 [3] was 1 to 10 nM, the IC50 (MDA-MB-231) was 1 to 10 nM and the IC50 [4] was 1 to 10 nM.
`COc1cc(C(=O)c2c(C#N)oc3c(O)c(OC)ccc23)cc(OC)c1OC` [Example 23] was tested, and the IC50 [3] was 1 to 10 nM, the IC50 (MDA-MB-231) was 0.1 to 1 nM and the IC50 [4] was 1 to 10 nM.
`COc1cc(C(=O)c2c(N)oc3c(O)c(OC)ccc23)cc(OC)c1OC` [Example 25] showed an IC50 [3] of 1 to 10 nM, an IC50 (MDA-MB-231) of 0.1 to 1 nM and an IC50 [4] of 1 to 10 nM.
`CCCCc1oc2c(O)c(OC)ccc2c1C(=O)c1cc(OC)c(OC)c(OC)c1` [Example 32] gave an IC50 [3] of 1 to 10 nM and an IC50 [4] of 1 to 10 nM.
With `CCc1oc2c(O)c(OC)ccc2c1C(=O)c1cc(OC)c(OC)c(OC)c1` [Example 33] the IC50 [3] was 0.1 to 1 nM and the IC50 [4] was 0.1 to 1 nM.
Work on `COc1cc(C(=O)c2c(CN(C)C)oc3c(O)c(OC)ccc23)cc(OC)c1OC` [Example 34] yielded an IC50 [3] of 1 to 10 nM and an IC50 [4] of 1 to 10 nM.
Work on `COc1cc(C(=O)c2c(C)[nH]c3c(O)c(OC)ccc23)cc(OC)c1OC` [Example 39] yielded an IC50 [3] of 0.1 to 1 nM and an IC50 [4] of 0.01 to 0.1 nM.
Compound `COc1ccc2c(C(=O)c3cc(OC)c(OC)c(OC)c3)c(C)sc2c1` [Example 41] has an IC50 [3] of 1 to 10 nM and an IC50 [4] of 1 to 10 nM.
`COc1cc(C(=O)c2c(C)sc3c(O)c(OC)ccc23)cc(OC)c1OC` [Example 42] gave an IC50 [3] of 1 to 10 nM and an IC50 [4] of 0.1 to 1 nM.
Work on `COc1cc(C(=O)c2c(NCCS(N)(=O)=O)oc3c(O)c(OC)ccc23)cc(OC)c1OC` [Example 45] yielded an IC50 [3] of 1 to 10 nM and an IC50 [4] of 1 to 10 nM.
